# Measurements published in ChEMBL document CHEMBL4229370, “Discovery of novel quinazolinone derivatives as high potent and selective PI3Kδ and PI3Kδ/γ inhibitors” (Eur J Med Chem, 2018).
# Assays:
# [1] = target: T1, Phosphatidylinositol 4,5-bisphosphate 3-kinase catalytic subunit delta isoform (Homo sapiens, UniProt O00329); assay: Inhibition of PI3Kdelta (unknown origin) using Biotin-S11S12 as substrate after 120 mins in presence of ATP by ADPGlo luminescence assay
# T1 sequence (O00329 whole entry): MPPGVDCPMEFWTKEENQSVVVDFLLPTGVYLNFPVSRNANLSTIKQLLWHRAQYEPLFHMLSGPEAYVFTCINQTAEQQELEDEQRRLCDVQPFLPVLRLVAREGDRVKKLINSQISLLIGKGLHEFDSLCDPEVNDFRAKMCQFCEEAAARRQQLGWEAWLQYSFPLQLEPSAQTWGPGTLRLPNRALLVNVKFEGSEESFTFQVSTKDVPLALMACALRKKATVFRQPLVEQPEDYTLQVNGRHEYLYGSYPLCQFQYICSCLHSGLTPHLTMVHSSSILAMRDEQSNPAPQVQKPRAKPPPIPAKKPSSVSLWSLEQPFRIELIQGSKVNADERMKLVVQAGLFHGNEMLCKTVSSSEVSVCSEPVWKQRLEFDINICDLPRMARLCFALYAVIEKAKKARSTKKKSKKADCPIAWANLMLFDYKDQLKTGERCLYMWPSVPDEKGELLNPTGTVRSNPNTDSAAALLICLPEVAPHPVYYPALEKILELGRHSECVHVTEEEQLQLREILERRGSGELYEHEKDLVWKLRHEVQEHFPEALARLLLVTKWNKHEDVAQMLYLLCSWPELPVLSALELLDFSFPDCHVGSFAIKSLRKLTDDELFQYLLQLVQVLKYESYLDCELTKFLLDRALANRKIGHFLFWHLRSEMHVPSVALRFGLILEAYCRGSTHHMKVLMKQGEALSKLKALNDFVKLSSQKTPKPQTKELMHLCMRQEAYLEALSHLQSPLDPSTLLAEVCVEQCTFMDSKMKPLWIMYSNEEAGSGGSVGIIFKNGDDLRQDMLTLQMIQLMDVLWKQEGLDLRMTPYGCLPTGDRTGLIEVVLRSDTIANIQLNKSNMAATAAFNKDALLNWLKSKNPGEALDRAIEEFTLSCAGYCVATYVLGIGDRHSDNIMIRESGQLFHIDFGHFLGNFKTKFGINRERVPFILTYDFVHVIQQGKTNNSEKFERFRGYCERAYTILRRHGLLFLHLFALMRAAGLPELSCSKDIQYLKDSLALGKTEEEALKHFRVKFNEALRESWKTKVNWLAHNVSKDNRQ
# [2] = target: T2, Phosphatidylinositol 4,5-bisphosphate 3-kinase catalytic subunit delta isoform (Homo sapiens) (UniProt O00329); assay: Inhibition of PI3Kdelta (unknown origin) at 1 uM using Biotin-S11S12 as substrate after 120 mins in presence of ATP by ADPGlo luminescence assay
# T2 sequence (whole entry): T1 sequence (O00329 whole entry)
# [3] = AUClast in Sprague-Dawley rat at 10 mg/kg, po; assay type: ADME, organism-based; design: dose 10 mg/kg, time 0 - last, route oral; conditions: in vivo
# [4] = Clearance in Sprague-Dawley rat at 1 mg/kg, iv; assay type: ADME, organism-based; conditions: in vivo
# [5] = target: Phosphatidylinositol 4,5-bisphosphate 3-kinase catalytic subunit alpha isoform (Homo sapiens, UniProt P42336); assay: Inhibition of PI3Kalpha (unknown origin) using Biotin-S11S12 as substrate after 60 mins in presence of ATP by Kinase Glo luminescence assay
# Phosphatidylinositol 4,5-bisphosphate 3-kinase catalytic subunit alpha isoform, sequence (P42336 whole entry, canonical isoform): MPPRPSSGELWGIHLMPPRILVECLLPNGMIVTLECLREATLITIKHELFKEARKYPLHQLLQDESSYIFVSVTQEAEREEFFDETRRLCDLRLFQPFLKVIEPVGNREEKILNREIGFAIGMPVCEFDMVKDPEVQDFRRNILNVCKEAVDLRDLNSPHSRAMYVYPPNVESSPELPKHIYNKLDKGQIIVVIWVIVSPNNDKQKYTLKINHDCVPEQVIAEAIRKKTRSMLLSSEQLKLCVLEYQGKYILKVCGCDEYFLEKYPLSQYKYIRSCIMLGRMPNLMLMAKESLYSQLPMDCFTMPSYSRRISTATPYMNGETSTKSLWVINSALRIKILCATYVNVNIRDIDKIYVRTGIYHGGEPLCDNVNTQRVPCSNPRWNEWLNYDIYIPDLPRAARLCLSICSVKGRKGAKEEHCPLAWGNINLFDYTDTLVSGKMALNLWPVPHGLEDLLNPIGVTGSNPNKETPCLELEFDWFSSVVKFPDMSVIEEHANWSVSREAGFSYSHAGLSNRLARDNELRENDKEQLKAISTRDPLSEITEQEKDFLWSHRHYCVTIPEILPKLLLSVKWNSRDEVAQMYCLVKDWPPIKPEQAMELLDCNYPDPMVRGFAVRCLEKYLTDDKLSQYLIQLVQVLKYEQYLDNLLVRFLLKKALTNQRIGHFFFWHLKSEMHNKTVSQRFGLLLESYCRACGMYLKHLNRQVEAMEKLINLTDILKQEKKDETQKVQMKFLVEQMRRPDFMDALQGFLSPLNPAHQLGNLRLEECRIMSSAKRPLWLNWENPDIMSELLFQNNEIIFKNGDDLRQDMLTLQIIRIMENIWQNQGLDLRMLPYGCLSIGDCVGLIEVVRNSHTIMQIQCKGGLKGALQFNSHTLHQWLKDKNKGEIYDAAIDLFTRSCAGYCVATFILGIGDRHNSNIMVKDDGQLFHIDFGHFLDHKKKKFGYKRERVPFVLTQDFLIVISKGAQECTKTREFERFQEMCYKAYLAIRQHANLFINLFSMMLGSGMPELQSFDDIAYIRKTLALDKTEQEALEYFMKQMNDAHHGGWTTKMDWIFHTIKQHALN
# [6] = target: Phosphatidylinositol 4,5-bisphosphate 3-kinase catalytic subunit beta isoform (Homo sapiens, UniProt P42338); assay: Inhibition of PI3Kbeta (unknown origin) using Biotin-S11S12 as substrate after 60 mins in presence of ATP by ADPGlo luminescence assay
# Phosphatidylinositol 4,5-bisphosphate 3-kinase catalytic subunit beta isoform, sequence (P42338 whole entry, canonical isoform): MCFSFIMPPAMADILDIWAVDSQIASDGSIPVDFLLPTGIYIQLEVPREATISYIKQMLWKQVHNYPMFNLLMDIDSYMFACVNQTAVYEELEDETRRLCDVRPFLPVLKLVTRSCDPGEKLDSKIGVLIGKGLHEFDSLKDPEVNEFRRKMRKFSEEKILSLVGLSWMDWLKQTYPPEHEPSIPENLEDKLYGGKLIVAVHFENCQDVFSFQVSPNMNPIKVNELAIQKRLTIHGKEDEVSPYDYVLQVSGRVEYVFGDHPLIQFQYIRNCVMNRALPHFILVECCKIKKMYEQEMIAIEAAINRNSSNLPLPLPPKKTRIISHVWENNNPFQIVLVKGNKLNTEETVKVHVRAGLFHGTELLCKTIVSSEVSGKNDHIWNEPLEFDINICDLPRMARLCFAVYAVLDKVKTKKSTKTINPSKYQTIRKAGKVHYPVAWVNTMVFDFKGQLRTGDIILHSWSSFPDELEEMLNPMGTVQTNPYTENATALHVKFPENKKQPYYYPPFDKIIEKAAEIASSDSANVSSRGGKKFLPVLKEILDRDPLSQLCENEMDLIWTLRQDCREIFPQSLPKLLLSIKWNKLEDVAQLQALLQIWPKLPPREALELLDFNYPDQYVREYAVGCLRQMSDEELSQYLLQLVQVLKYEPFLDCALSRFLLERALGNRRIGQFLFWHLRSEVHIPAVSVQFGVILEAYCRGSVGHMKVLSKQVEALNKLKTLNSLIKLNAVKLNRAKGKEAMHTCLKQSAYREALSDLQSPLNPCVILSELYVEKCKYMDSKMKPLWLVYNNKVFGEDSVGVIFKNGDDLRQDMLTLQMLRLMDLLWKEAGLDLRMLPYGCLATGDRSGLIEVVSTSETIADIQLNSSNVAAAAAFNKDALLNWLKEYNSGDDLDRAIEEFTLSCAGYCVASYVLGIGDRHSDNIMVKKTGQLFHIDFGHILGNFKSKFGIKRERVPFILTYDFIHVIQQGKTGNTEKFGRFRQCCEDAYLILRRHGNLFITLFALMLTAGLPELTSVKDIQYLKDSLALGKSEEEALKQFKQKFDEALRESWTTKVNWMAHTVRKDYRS
# [7] = target: Phosphatidylinositol 4,5-bisphosphate 3-kinase catalytic subunit gamma isoform (Homo sapiens, UniProt P48736); assay: Inhibition of PI3Kgamma (unknown origin) using Biotin-S11S12 as substrate after 60 mins in presence of ATP by ADPGlo luminescence assay
# Phosphatidylinositol 4,5-bisphosphate 3-kinase catalytic subunit gamma isoform, sequence (P48736 whole entry, canonical isoform): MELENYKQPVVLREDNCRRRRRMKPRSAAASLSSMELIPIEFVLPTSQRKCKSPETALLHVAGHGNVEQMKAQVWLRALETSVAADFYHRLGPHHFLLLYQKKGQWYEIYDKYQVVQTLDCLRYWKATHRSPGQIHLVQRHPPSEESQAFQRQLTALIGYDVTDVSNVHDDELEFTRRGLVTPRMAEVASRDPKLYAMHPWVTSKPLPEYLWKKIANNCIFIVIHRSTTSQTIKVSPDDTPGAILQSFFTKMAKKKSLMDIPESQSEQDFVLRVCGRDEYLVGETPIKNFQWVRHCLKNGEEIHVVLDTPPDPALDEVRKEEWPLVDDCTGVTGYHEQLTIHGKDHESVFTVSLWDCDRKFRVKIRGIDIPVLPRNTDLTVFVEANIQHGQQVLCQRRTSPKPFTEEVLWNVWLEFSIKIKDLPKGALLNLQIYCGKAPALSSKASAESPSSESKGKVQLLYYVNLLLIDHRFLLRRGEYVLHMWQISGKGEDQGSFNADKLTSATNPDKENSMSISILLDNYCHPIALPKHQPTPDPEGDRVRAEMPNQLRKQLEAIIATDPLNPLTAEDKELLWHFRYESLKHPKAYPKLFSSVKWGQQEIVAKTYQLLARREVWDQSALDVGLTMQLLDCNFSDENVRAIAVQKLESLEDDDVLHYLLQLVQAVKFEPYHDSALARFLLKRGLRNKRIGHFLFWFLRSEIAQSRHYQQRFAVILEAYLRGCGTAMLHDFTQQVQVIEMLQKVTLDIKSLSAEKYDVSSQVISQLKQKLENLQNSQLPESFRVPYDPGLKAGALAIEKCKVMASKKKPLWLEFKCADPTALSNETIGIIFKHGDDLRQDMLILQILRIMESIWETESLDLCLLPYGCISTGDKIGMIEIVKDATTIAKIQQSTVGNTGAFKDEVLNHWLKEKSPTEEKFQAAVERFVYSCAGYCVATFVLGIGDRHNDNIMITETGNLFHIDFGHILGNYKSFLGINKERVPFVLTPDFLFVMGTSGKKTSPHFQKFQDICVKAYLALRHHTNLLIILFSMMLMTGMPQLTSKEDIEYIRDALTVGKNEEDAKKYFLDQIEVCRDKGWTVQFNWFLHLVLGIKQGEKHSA
# [8] = organism: Homo sapiens; assay: Selectivity index, ratio of IC50 for PI3Kalpha (unknown origin) to IC50 for PI3Kdelta (unknown origin)
# [9] = organism: Homo sapiens; assay: Selectivity index, ratio of IC50 for PI3Kbeta (unknown origin) to IC50 for PI3Kdelta (unknown origin)
# [10] = organism: Homo sapiens; assay: Selectivity index, ratio of IC50 for PI3Kgamma (unknown origin) to IC50 for PI3Kdelta (unknown origin)
# [11] = system: SU-DHL-6; assay: Growth inhibition of human SU-DHL6 cells by CellTiter-Glo assay; assay type: functional
# [12] = AUClast in Sprague-Dawley rat at 1 mg/kg, iv; assay type: ADME, organism-based; design: dose 1 mg/kg, time 0 - last, route intravenous; conditions: in vivo
# [13] = AUC (0 to infinity) in Sprague-Dawley rat at 1 mg/kg, iv; assay type: ADME, organism-based; design: dose 1 mg/kg, time infinity, route intravenous; conditions: in vivo
# [14] = Volume of distribution at steady state in Sprague-Dawley rat at 1 mg/kg, iv; assay type: ADME, organism-based; conditions: in vivo, read-out: Vdss
# [15] = Terminal half-life in Sprague-Dawley rat at 1 mg/kg, iv; assay type: ADME, organism-based; conditions: in vivo, read-out: beta t1/2 (converted)
# [16] = AUC (0 to infinity) in Sprague-Dawley rat at 10 mg/kg, po; assay type: ADME, organism-based; design: dose 10 mg/kg, time infinity, route oral; conditions: in vivo
# [17] = Terminal half-life in Sprague-Dawley rat at 10 mg/kg, po; assay type: ADME, organism-based; conditions: in vivo, read-out: beta t1/2 (converted)
# [18] = Oral bioavailability in Sprague-Dawley rat at 10 mg/kg; assay type: ADME, organism-based; conditions: in vivo
# [19] = MRT (infinity) in Sprague-Dawley rat at 1 mg/kg, iv; assay type: ADME, organism-based; conditions: in vivo
# [20] = Tmax in Sprague-Dawley rat at 10 mg/kg, po; assay type: ADME, organism-based; conditions: in vivo
# [21] = Cmax in Sprague-Dawley rat at 10 mg/kg, po; assay type: ADME, organism-based; design: dose 10 mg/kg, route oral; conditions: in vivo
# [22] = Plasma concentration in Sprague-Dawley rat at 1 mg/kg, iv after 0.083 hrs; assay type: ADME, organism-based
# [23] = Plasma concentration in Sprague-Dawley rat at 1 mg/kg, iv after 0.25 hrs; assay type: ADME, organism-based
# [24] = Plasma concentration in Sprague-Dawley rat at 1 mg/kg, iv after 0.5 hrs; assay type: ADME, organism-based
# [25] = Plasma concentration in Sprague-Dawley rat at 1 mg/kg, iv after 1 hrs; assay type: ADME, organism-based
# [26] = Plasma concentration in Sprague-Dawley rat at 1 mg/kg, iv after 2 hrs; assay type: ADME, organism-based
# [27] = Plasma concentration in Sprague-Dawley rat at 1 mg/kg, iv after 4 hrs; assay type: ADME, organism-based
# [28] = Plasma concentration in Sprague-Dawley rat at 1 mg/kg, iv after 8 hrs; assay type: ADME, organism-based
# [29] = Plasma concentration in Sprague-Dawley rat at 1 mg/kg, iv after 24 hrs; assay type: ADME, organism-based; conditions: in vivo, BLD = below limit of detection
# [30] = Plasma concentration in Sprague-Dawley rat at 10 mg/kg, po after 0.083 hrs; assay type: ADME, organism-based
# [31] = Plasma concentration in Sprague-Dawley rat at 10 mg/kg, po after 0.25 hrs; assay type: ADME, organism-based
# [32] = Plasma concentration in Sprague-Dawley rat at 10 mg/kg, po after 0.5 hrs; assay type: ADME, organism-based
# [33] = Plasma concentration in Sprague-Dawley rat at 10 mg/kg, po after 1 hrs; assay type: ADME, organism-based
# [34] = Plasma concentration in Sprague-Dawley rat at 10 mg/kg, po after 2 hrs; assay type: ADME, organism-based
# [35] = Plasma concentration in Sprague-Dawley rat at 10 mg/kg, po after 4 hrs; assay type: ADME, organism-based
# [36] = Plasma concentration in Sprague-Dawley rat at 10 mg/kg, po after 8 hrs; assay type: ADME, organism-based
# [37] = Plasma concentration in Sprague-Dawley rat at 10 mg/kg, po after 24 hrs; assay type: ADME, organism-based; conditions: in vivo, BLD = below limit of detection
structure (smiles),measurement,setting,value
Cc1cccc(C)c1-n1c(Cn2nc(-c3ccc4cc(O)ccc4c3)c3c(N)ncnc32)nc2cccc(F)c2c1=O,IC50,[1],0.416 µM
same,inhibition,[2],77.3%
Cc1ccccc1-n1c(Cn2nc(-c3ccc4c(c3)OCO4)c3c(N)ncnc32)nc2cccc(F)c2c1=O,IC50,[1],0.106 µM
same,inhibition,[2],89.6%
Cc1cccc(C)c1-n1c(Cn2nc(-c3cccc(OC(F)(F)F)c3)c3c(N)ncnc32)nc2cccc(F)c2c1=O,inhibition,[2],29.6%
Cc1cccc(C)c1-n1c(Cn2nc(-c3cnc4ccccc4c3)c3c(N)ncnc32)nc2cccc(F)c2c1=O,IC50,[1],0.081 µM
same,inhibition,[2],92%
Cc1ccccc1-n1c(Cn2nc(-c3ccc4cc(O)ccc4c3)c3c(N)ncnc32)nc2cccc(F)c2c1=O,IC50,[1],0.227 µM
same,inhibition,[2],73%
Cc1ccccc1-n1c(Cn2nc(-c3cnc4ccccc4c3)c3c(N)ncnc32)nc2cccc(F)c2c1=O,IC50,[1],0.086 µM
same,inhibition,[2],90%
COc1ccc(-c2nn(Cc3nc4cccc(F)c4c(=O)n3-c3ccccc3C)c3ncnc(N)c23)cn1,IC50,[1],0.031 µM
same,inhibition,[2],92.7%
Cc1ccccc1-n1c(Cn2nc(-c3ccc4[nH]ccc4c3)c3c(N)ncnc32)nc2cccc(F)c2c1=O,IC50,[1],0.016 µM
same,inhibition,[2],94.7%
COc1ccc(-c2nn(Cc3nc4cccc(F)c4c(=O)n3-c3c(C)cccc3C)c3ncnc(N)c23)cc1OC,AUC(0-t),[3],3530 ng·h/mL
same,clearance,[4],16.5 mL/min/kg
same,IC50,[1],0.0084 µM
same,inhibition,[2],96.8%
same,IC50,[5],11.8 µM
same,IC50,[6],6.96 µM
same,IC50,[7],0.062 µM
same,Ratio IC50,[8],1410
same,Ratio IC50,[9],828
same,Ratio IC50,[10],7
same,GI50,[11],0.222 µM
same,AUC(0-t),[12],1010 ng·h/mL
same,AUC(0-inf),[13],1020 ng·h/mL
same,Vd,[14],0.45 L/kg
same,half-life,[15],37.2 min
same,AUC(0-inf),[16],3550 ng·h/mL
same,half-life,[17],101 min
same,bioavailability,[18],34.9%
same,MRT inf,[19],30.6 min
same,Tmax,[20],50 min
same,Cmax,[21],387 ng/mL
same,concentration at 0.083 h,[22],1020 ng/mL
same,concentration at 0.25 h,[23],541 ng/mL
same,concentration at 0.5 h,[24],250 ng/mL
same,concentration at 1 h,[25],64.3 ng/mL
same,concentration at 2 h,[26],13.1 ng/mL
same,concentration at 4 h,[27],2.58 ng/mL
same,concentration at 8 h,[28],1.83 ng/mL
same,Cp,[29],Bld
same,concentration at 0.083 h,[30],198 ng/mL
same,concentration at 0.25 h,[31],343 ng/mL
same,concentration at 0.5 h,[32],379 ng/mL
same,concentration at 1 h,[33],318 ng/mL
same,concentration at 2 h,[34],192 ng/mL
same,concentration at 4 h,[35],9.86 ng/mL
same,concentration at 8 h,[36],6.5 ng/mL
same,Cp,[37],Bld
Cc1cccc(C)c1-n1c(Cn2nc(-c3ccc4[nH]ccc4c3)c3c(N)ncnc32)nc2cccc(F)c2c1=O,AUC(0-t),[3],808 ng·h/mL
same,clearance,[4],36 mL/min/kg
same,IC50,[1],0.0086 µM
same,inhibition,[2],96.8%
same,IC50,[5],31.3 µM
same,IC50,[6],3.37 µM
same,IC50,[7],0.363 µM
same,Ratio IC50,[8],3640
same,Ratio IC50,[9],392
same,Ratio IC50,[10],42
same,GI50,[11],0.149 µM
same,AUC(0-t),[12],471 ng·h/mL
same,AUC(0-inf),[13],473 ng·h/mL
same,Vd,[14],1.11 L/kg
same,half-life,[15],50.4 min
same,AUC(0-inf),[16],820 ng·h/mL
same,half-life,[17],78.6 min
same,bioavailability,[18],17.3%
same,MRT inf,[19],30.6 min
same,Tmax,[20],50 min
same,Cmax,[21],387 ng/mL
same,concentration at 0.083 h,[22],1020 ng/mL
same,concentration at 0.25 h,[23],541 ng/mL
same,concentration at 0.5 h,[24],250 ng/mL
same,concentration at 1 h,[25],64.3 ng/mL
same,concentration at 2 h,[26],13.1 ng/mL
same,concentration at 4 h,[27],2.58 ng/mL
same,concentration at 8 h,[28],1.83 ng/mL
same,Cp,[29],Bld
same,concentration at 0.083 h,[30],198 ng/mL
same,concentration at 0.25 h,[31],343 ng/mL
same,concentration at 0.5 h,[32],379 ng/mL
same,concentration at 1 h,[33],318 ng/mL
same,concentration at 2 h,[34],192 ng/mL
same,concentration at 4 h,[35],9.86 ng/mL
same,concentration at 8 h,[36],6.5 ng/mL
same,Cp,[37],Bld
Cc1ccccc1-n1c(Cn2nc(-c3cccc(OC(F)(F)F)c3)c3c(N)ncnc32)nc2cccc(F)c2c1=O,inhibition,[2],70.8%
COc1ccc(-c2nn(Cc3nc4cccc(F)c4c(=O)n3-c3c(C)cccc3C)c3ncnc(N)c23)cn1,IC50,[1],0.041 µM
same,inhibition,[2],94.7%
CC[C@H](Nc1ncnc2[nH]cnc12)c1nc2cccc(F)c2c(=O)n1-c1ccccc1 [IDELALISIB],inhibition,[2],91.9%
same,GI50,[11],0.042 µM
Cc1cccc(C)c1-n1c(Cn2nc(-c3ccc4c(c3)OCO4)c3c(N)ncnc32)nc2cccc(F)c2c1=O,IC50,[1],0.084 µM
same,inhibition,[2],89.1%
COc1ccc(-c2nn(Cc3nc4cccc(F)c4c(=O)n3-c3ccccc3C)c3ncnc(N)c23)cc1OC,IC50,[1],0.026 µM
same,inhibition,[2],90.8%
